Measurements published in patent publication US10793531B2, “Triazole derivatives and their use as PDE4 activators” (MIRONID LIMITED, priority 2015, dated 2020).

Key:
[1] = test system: HEK 293 cells; assay: Reduction of intracellular cAMP levels in forskolin stimulated HEK 293 cells (Experiment 2); type: cell-based, human; settings: 10 μM compound for 10 min prior to forskolin (10 μM) for 2 min; FIG. 5
Experimental: (§1) HEK 293 and MDCK cells (Public Health England, Cell Culture Collections) were maintained in DMEM supplemented with 10% (v/v) fetal bovine serum (Seralab), 2 mM L-glutamine, 1,000 U penicillin and 1,000 μg streptomycin (Life Technologies); termed complete media. Clonal HEK 293 cell lines were maintained in complete media supplemented with 0.6 mg/mL G418 (Enzo Life Sciences).
(§2) HEK 293 or MDCK cells were seeded at 100,000 cells per well, and left to adhere overnight. The cells were then treated with the compound indicated (10 μM) for 10 minutes, prior to stimulation with forskolin (10 μM, Sigma) for 2 minutes. Media was aspirated, and hydrochloric acid (0.1M) was added to lyse the cells. The cAMP assay (Enzo Life Sciences) was performed according to the manufacturers instructions.

[2] = test system: MDCK cells; assay: Reduction of intracellular cAMP levels in forskolin stimulated MDCK cells (Experiment 2); type: cell-based, canine; settings: 10 μM compound for 10 min prior to forskolin (10 μM) for 2 min; FIG. 6
Experimental: as §1, §2

[3] = test system: androgen-sensitive (AS) LNCaP human prostate cancer cells; assay: Xcelligence proliferation assay, androgen-sensitive LNCaP cells (Experiment 5); type: cell-based; settings: normalised cell index at 72 hours; FIG. 9
Experimental: (§3) In this study, the potential utility of PDE4 long form activators in the treatment of prostate cancer was studied using the LNCaP human prostate cancer cell line. The experiments were carried out according to the method described by Henderson et al. (Henderson, D. J. P., Byrne, A., Dulla, K., Jenster, G., Hoffmann, R., Baillie, G. S., Houslay, M. D. Br. J. Cancer 110: 1278-1287, 2014).
(§4) Androgen-sensitive (AS) LNCaP cells were maintained in RPMI1640 supplemented with 10% FBS (Seralabs), 2 mM L-glutamine and 1,000 U penicillin-streptomycin. LNCaP androgen-insensitive (AI) cells were generated in-house by culturing the LNCaP-AS cells in RPMI1640 supplemented with 10% charcoal stripped FBS, 2 mM L-glutamine and 1,000 U penicillin-streptomycin for a minimum of four weeks. All tissue culture reagents were, from Life Technologies.
(§5) Cell proliferation is measured as a function of changing electrical impedance. Values are represented by cell index number, a dimensionless unit of measurement representing the cell status, which increases as cells adhere to 96-well electrode plates and divide. […]
(§6) Cell indices were measured every 10 minutes for up to 100 hours, analysed using RICA software and normalised to the cell index of vehicle-treated cells (n=3).

[4] = test system: androgen-insensitive (AI) LNCaP human prostate cancer cells; assay: Xcelligence proliferation assay, androgen-insensitive LNCaP cells (Experiment 5); type: cell-based; settings: normalised cell index at 72 hours; FIG. 10
Experimental: as §3, §4, §5, §6

[5] = In vitro clearance using human hepatocytes (Experiment 6); type: in vitro ADME; settings: human, cryopreserved human hepatocytes; 1 μM compound, 1 million cells/ml, 37° C.
Experimental: (§7) Human hepatocyte stability is considered the gold standard method for evaluating the hepatic metabolism of drugs in vitro. The in vitro clearance of Example A was evaluated using cryopreserved human hepatocytes according to the method of Lau et al. (Lau, Y. Y. et al. Drug Metab. Dispos. 30: 1446-1454, 2002) with minor modifications.
(§8) Cryopreserved hepatocytes were thawed in a water bath at 37° C. and transferred to a tube containing 50 ml of hepatocyte thaw medium. The hepatocytes were centrifuged at 500 rpm for 3 min. The supernatant was removed and the hepatocytes were resuspended in medium, mixed gently and centrifuged again at 500 rpm for 3 min. The supernatant was discarded and the hepatocyte pellet was gently resuspended in medium to a final density of 2 million cells/ml.
(§9) Incubations were carried out at a final test compound concentration of 1 μM. Stock solutions of the compounds were prepared in DMSO and diluted to the desired concentrations before adding to the hepatocytes. Incubations were carried out with a hepatocyte concentration of 1 million cells/ml. Samples (100 μL) were incubated at 37° C. for 0, 15, 30, 60 and 120 min in duplicate. At the end of the incubation time, 200 μl of acetonitrile with internal standard was added and the wells were sealed. […]
(§10) The samples were analysed by LC-MS/MS using a Sciex API 4000™ system.

[6] = test system: cryopreserved human hepatocytes; assay: as above; type: in vitro ADME; settings: 1 μM compound, 1 million cells/ml, 37° C.
Experimental: as §7, §8, §9, §10

half-life at 1 μM [5]: 54 min
stability in human hepatocytes (in words) [6]: moderately stable
Structure (SMILES): CCc1nc(-c2ccc(Cl)c(F)c2)nn1CC(=O)NCc1cccc(F)c1 [Example A, N-(3-Fluorobenzyl)-2-[3-(4-chloro-3-fluorophenyl)-5-ethyl-1H-1,2,4-triazol-1-yl]acetamide]
intracellular cAMP levels in HEK293 cells (in words) [1]: reduction in intracellular cAMP levels
intracellular cAMP levels in MDCK cells (in words) [2]: reduction in intracellular cAMP levels
proliferation of androgen-sensitive (AS) LNCaP cells (in words) [3]: inhibits the proliferation
proliferation of androgen-insensitive (AI) LNCaP cells (in words) [4]: inhibits the proliferation
